# Experimental data reported in PMC5740485 (Biochemistry, 2017).
# Several values for one entry are separate records, joined by “and”; a condition that tells them apart may be missing. Identical values can stand only once. Entries after “also recorded” stand apart in the source; their conditions may differ. Like-named read-outs stand apart in the source and are kept apart here.
# Key:
# [1] = target: T1, E. coli dihydrofolate reductase (ecDHFR) (Escherichia coli, UniProt P0ABQ4); assay type: binding; details: 0.1 mM ecDHFR; for ILOE signals with metformin (co-binding): 5 mM of each ligand (Fenbufen 2 mM), pH 6.8, 25 °C
# T1 sequence (P0ABQ4 1-159): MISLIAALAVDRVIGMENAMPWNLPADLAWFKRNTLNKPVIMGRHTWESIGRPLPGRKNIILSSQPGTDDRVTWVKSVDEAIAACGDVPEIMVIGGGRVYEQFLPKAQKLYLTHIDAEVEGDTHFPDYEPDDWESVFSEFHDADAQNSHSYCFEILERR
# [2] = target: T1, E. coli dihydrofolate reductase (ecDHFR)
# [3] = target: T1, E. coli dihydrofolate reductase (ecDHFR); experiment: Steady state kinetics of ecDHFR inhibition; assay type: biochemical; details: for α value (cooperative inhibition by MFM and pABG): Dixon plots, DHF 7.5 μM, α > 1 = negative cooperativity; for Ki: 30 °C, pH 7.0; for mode of inhibition: versus DHF, Lineweaver-Burk plot
# [4] = target: T1, E. coli dihydrofolate reductase (ecDHFR); experiment: Isothermal titration calorimetry; assay type: binding
# [5] = target: T1, E. coli dihydrofolate reductase (ecDHFR); experiment: biochemical; details: NMR
# L. casei DHFR = details: cited from earlier work
# [6] = Ki, Lineweaver-Burk slope vs inhibitor concentration, NADPH 70 μM
smiles,measurement,setting,value
"Cc1cc(C(=O)CCC(=O)O)c(C)c(C)c1C [2,3,4,5-tetramethyl, 3-(2,3,4,5-tetramethylbenozyl)propionate]",ILOE signals with metformin (co-binding),[1],stronger ILOE signals
"COc1ccc(C(=O)NCC(=O)O)cc1OC [3,4-Dimethoxyhippurate, 3,4-dimethoxyhippurate]",ILOE signals with metformin (co-binding),[1],weak ILOE cross peaks
"CC(C)c1ccc(C(=O)CCC(=O)O)cc1 [4-isopropyl, 3-(4-isopropylbenozyl)propionate]",ILOE signals with metformin (co-binding),[1],stronger ILOE signals
Cc1ccc(C(=O)NCC(=O)O)cc1 [4-methylhippurate],ILOE signals with metformin (co-binding),[1],ILOE signals were obtained
"Cc1ccc(C(=O)CCC(=O)O)c(C)c1 [DMBP, 3-(2,4-dimethylbenzoyl)propionate]",Kd,"[2]; NMR serial titration, no other ligand",5.4 mM
O=C(O)c1cc(-c2ccc(F)cc2F)ccc1O [Diflunisal],transferred NOE signals,"[1]; screening buffer, 25 °C",transferred NOE signals consistent with binding
CN(C)C(=N)N=C(N)N [Metformin],α value (cooperative inhibition by MFM and pABG),[3]; NADPH 70 μM,3.3 ± 1.3
same,Ki,[3]; [6],24 ± 7 mM
same,Ki,"[3]; Ki, non-linear global fit of all the data (SAS), NADPH",17.9 mM
same,mode of inhibition,[3]; listed as MFM,competitive binding; also recorded: competitive inhibition
same,affinity relative to DAP (fold weaker),[2]; ecDHFR affinity for MFM versus DAP,~ 20 fold
same,ΔH,"[4]; ITC competitive displacement by DHF, NADP+ present, initial fit with variable ΔH",-1.1 ± 3.2 kcal/mol
same,Kd,"[4]; mean Kd, stated as mean of NMR and ITC displacement studies",17.9 mM
same,Kd,"[5]; Ile5 resonance, no other ligand, pH 7.2 in D2O",14.8 mM and 15.9 mM
same,Kd,"[5]; Ile50, 75 mM DMBP present",7 ± 0.16 mM
same,Kd,"[5]; Ile50′ (MFM-sensitive resonance), 50 mM pABG present",6.89 ± 0.56 mM
same,Kd,"[5]; Ile50′, 50 mM pABG and 2 mM NADP+ present",5.27 ± 0.71 mM
same,Kd,"[5]; Ile61′ (MFM-sensitive resonance), 50 mM pABG present",5.36 ± 1.15 mM
"[H]/N=C(/N)N/C(=N/[H])NCCc1ccccc1 [Phenformin, phenformin]",Ki,[3]; [6],0.17 ± 0.02 mM
same,inhibition constant relative to metformin (fold lower),[3]; phenformin Ki versus metformin Ki,100 fold
same,mode of inhibition,[3],competitive inhibition
same,Kd,"[4]; Kd, ITC direct titration, cofactor NADP+, pH 7.0, 25° C",0.188 ± 0.018 mM
same,Kd,"[4]; Kd, ITC direct titration, cofactor NADPH, pH 7.0, 25° C",0.098 ± 0.007 mM
same,Kd,"[4]; Kd, ITC direct titration, no cofactor, pH 7.0, 25° C",0.716 ± 0.045 mM
"O=C(O)CNC(=O)c1ccccc1 [hippurate, N-benzoylglycine]",ILOE signals with metformin (co-binding),[1],neither transferred NOE nor ILOE MFM-hippurate cross peaks were observed
"Nc1ccc(C(=O)N[C@@H](CCC(=O)O)C(=O)O)cc1 [pABG, p-aminobenzoyl-L-glutamate]",α value (cooperative inhibition by MFM and pABG),[3]; NADPH 70 μM,3.3 ± 1.3
same,Kd/Ki ratio,"[3]; Kd (NMR, no cofactor) over Ki (NADPH present)",4.4
same,Ki,"[3]; Lineweaver-Burk slope vs inhibitor concentration, NADPH 70 μM",1.8 ± 0.3 mM
same,Ki,"[3]; non-linear global fit of all the data (SAS), NADPH",1.3 ± 0.2 mM
same,Kd,"[2]; NMR, Ile50 resonance, no other ligand, pH 7.2 in D2O",7.64 ± 0.53 mM
same,Kd,"[2]; NMR, Ile61 resonance, no other ligand, pH 7.2 in D2O",8.09 ± 0.52 mM
same,Kd,"[2]; NMR, Ile94 resonance, no other ligand, pH 7.2 in D2O",8 ± 0.37 mM
same,Kd,"[2]; read-out: Kd (mean), mean of NMR values from Ile50, Ile61, Ile94",7.9 mM and 7.91 mM
same,Kd ratio in the absence and presence of NADPH,L. casei DHFR,4.5
same,ILOE signals with metformin (co-binding),[1],ILOE signals connecting the MFM methyl resonances with the pABG aromatic resonances were present
